Assay results taken from patent publication US9040717B2, “Pyrazole-amide compounds and pharmaceutical use thereof” (JAPAN TOBACCO INC., priority 2013, dated 2015).

Target: hERG current in hERG-transfected HEK293 cells (Homo sapiens (Human), UniProt Q12809)
Assay: hERG whole cell patch clamp test
Assay type: cell-based
Details: for IC50: whole cell patch clamp
Protocol: Using human ether-a-go-go related gene (hERG)-transfected HEK293 cells (Cytomyx Limited), an influence on hERG current was examined according to the whole cell patch clamp technique. The hERG-transfected HEK293 cells were passaged using a CO2 incubator (BNA-111, TABAI ESPEC CORP.) under the set conditions of 37° C., 5% CO2, saturated humidity. Culture containers used were Collagen Type I Coated 75 cm^2 flask (4123-010, AGC TECHNO GLASS CO., Ltd.) and Collagen Type I Coated 35 mm culture dish (4000-010, AGC TECHNO GLASS CO., Ltd.). The culture medium used was E-MEM (Eagle Minimum Essential Medium (Earle's Salts, Nikken biomedical laboratory) added with 10% FCS (Fetal calf serum, BioWest, L.L.C.) and 1% MEM Non-Essential Amino Acids Solution (NEAA, Invitrogen Corporation). Geneticin for the selection of hERG gene expressing cells was added thereto to a concentration of 400 μg/mL. As the cells for the measurement, 3×10^4 hERG-transfected HEK293 cells were plated on a 35 mm culture dish 4 to 7 days before measurement of the hERG current. The culture dish produced for the measurement contained the above-mentioned culture medium without geneticin (Invitrogen Corporation).
The highest evaluation concentration of each compound was determined from the highest concentration at which precipitation was not found in the standard extracellular fluid (NaCl: 140 mmol/L, KCl: 2.5 mmol/L, MgCl2:2 mmol/L, CaCl2: 2 mmol/L, HEPES: 10 mmol/L, glucose: 10 mmol/L (adjusted to pH 7.4 with Tris-base)). As the application method, each solution to be applied was ejected from a Y-tube having a tip diameter of about 0.25 mm, which was adjacent (about 2 mm) to the cells, and applied to the cells. The ejection rate was about 0.4 mL/min.
The experiment was performed at room temperature under a phase contrast microscope. The 35 mm culture dish plated with the cells was set on a measurement apparatus, and the standard extracellular fluid was continuously applied to the cells from the Y-tube. A glass electrode for the measurement was filled with an intracellular fluid (Potassium Gluconate: 130 mmol/L, KCl: 20 mmol/L, MgCl2: 1 mmol/L, ATP-Mg: 5 mmol/L, EGTA: 3.5 mmol/L, HEPES: 10 mmol/L (adjusted to pH 7.2 with Tris-base)). A conventional whole cell patch clamp method was applied to the cells, and the maintenance electric potential was set to −80 mV. Under a fixed electric potential, the whole cell current was amplified by an amplifier for patch clamp (AXOPATCH-200B, Axon Instruments, Inc.), and the data was loaded into a computer (IMC-P642400, Intermedical Co., Ltd.) using a data acquisition analysis software (pCLAMP 9.2, Axon Instruments, Inc.).
The measurement of the hERG current was performed in the following two steps. In both cases, the hERG current was initiated by giving a command potential (maintenance electric potential −80 mV, prepulse +20 mV, 1.5 sec, test-pulse −50 mV, 1.5 sec).
Step (1): The above-mentioned command potential was given at 0.1 Hz for 2 min.
Step (2): The above-mentioned command potential was subjected to P/3 subtraction of pCLAMP 9.2 to remove leak current. This was repeated three times and an average thereof was taken as hERG current.
Subsequent to step (1), Step (2) was performed (about 3 min), and the maximum tail current obtained by applying a test-pulse to the hERG current obtained by the method of step (2) was taken as hERG current value. Hereafter, the operations of (1) and (2) were alternately repeated until completion of the experiment and the hERG current value was measured.
Stable hERG current value was recorded three times (about 10 min), and the standard extracellular fluid was instantaneously exchanged with each application fluid. The hERG current value was measured three times (about 10 min) in the same manner during perfusion of the application fluid, and the current value obtained by the 3rd measurement was taken as hERG current value after perfusion of the application fluid. […]

Chain of hERG current in hERG-transfected HEK293 cells (Q12809 whole entry): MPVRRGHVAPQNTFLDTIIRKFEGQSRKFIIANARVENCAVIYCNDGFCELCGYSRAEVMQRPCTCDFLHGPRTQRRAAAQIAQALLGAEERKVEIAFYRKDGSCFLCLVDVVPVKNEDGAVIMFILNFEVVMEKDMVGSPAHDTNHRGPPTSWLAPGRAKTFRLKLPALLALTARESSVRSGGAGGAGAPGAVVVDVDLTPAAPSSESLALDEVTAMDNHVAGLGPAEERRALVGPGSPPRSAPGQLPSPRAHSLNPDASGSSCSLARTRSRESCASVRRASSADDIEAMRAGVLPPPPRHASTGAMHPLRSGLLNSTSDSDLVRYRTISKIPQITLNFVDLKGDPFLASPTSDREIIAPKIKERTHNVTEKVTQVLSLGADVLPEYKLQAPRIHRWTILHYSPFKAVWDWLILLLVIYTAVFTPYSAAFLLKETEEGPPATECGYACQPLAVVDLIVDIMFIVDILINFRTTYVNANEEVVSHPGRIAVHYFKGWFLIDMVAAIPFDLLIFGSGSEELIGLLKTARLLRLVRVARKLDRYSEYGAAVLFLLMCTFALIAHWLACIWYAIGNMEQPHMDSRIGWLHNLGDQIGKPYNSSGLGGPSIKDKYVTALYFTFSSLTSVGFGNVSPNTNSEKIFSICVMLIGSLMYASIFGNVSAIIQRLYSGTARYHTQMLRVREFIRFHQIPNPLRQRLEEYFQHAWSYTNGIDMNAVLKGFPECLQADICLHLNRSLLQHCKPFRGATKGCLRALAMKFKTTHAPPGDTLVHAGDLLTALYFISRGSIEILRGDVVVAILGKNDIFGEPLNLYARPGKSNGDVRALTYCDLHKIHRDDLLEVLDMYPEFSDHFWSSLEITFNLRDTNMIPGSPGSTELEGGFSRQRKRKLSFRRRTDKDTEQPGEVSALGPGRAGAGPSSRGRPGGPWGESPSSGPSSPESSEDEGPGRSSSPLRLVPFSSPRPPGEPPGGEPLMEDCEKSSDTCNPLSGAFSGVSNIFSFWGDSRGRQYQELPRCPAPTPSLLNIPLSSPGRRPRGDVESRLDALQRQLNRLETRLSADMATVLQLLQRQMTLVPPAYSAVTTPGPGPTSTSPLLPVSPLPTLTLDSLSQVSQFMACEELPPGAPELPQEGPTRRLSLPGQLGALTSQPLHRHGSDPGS

Row | Compound | hERG current Inhibition rate (%) (1 μmol/L) | hERG current Inhibition rate (%) (10 μmol/L) | hERG current Inhibition rate (%) (30 μmol/L) | IC50 [µM]
1 | Cn1cc(-c2cc(OCC(C)(C)O)cc3c2-c2ccccc2[C@]3(O)C(F)(F)F)cn1 [Compound (B), (9R)-2-(2-Hydroxy-2-methylpropoxy)-4-(1-methyl-1H-pyrazol-4-yl)-9-(trifluoromethyl)-9H-fluoren-9-ol] | 17.4 | 72.9 |  | 
2 | CC(C)(O)CCOc1cc(-c2cnn(C(C)(C)C(N)=O)c2)c2c(c1)[C@@](O)(C(F)(F)F)c1ccccc1-2 [Compound (2), 2-{4-[(9R)-9-hydroxy-2-(3-hydroxy-3-methylbutyloxy)-9-(trifluoromethyl)-9H-fluoren-4-yl]-1H-pyrazol-1-yl}-2-methylpropanamide] |  |  | 24.4 | > 30
3 | CC(C)(O)CCCOc1cc(-c2cnn(C(C)(C)C(N)=O)c2)c2c(c1)[C@@](O)(C(F)(F)F)c1ccccc1-2 [Compound (3), 2-{4-[(9R)-9-hydroxy-2-(4-hydroxy-4-methylpentyloxy)-9-(trifluoromethyl)-9H-fluoren-4-yl]-1H-pyrazol-1-yl}-2-methylpropanamide] |  |  | 27.3 | > 30
4 | NC(=O)Cn1cc(-c2cc(OCCC34CC5CC(CC(O)(C5)C3)C4)cc3c2-c2ccccc2[C@]3(O)C(F)(F)F)cn1 [Compound (A), 2-(4-{(9R)-9-Hydroxy-2-[2-(3-hydroxyadamantan-1-yl)ethoxy]-9-(trifluoromethyl)-9H-fluoren-4-yl}-1H-pyrazol-1-yl)acetamide] |  | 11.8 |  | 
